Assay: Human HepG2 cell viability assay in 384 well format
Type: toxicity, cell-based
Design: dose 125 nL, time 70.5 hour; cytotoxicity at 70.5 h: concentration not given beside the values
Conditions: HepG2 cells, read-out: Inhibition

SMILES	cytotoxicity at 70.5 h [%]
COC(=O)c1sccc1S(=O)(=O)NCCC(O)c1ccco1 (configuration not stated)	-8.35
O=C(OCc1ccccc1)N1CC[C@H]2CC(CO)O[C@@H]2C1 (some centres not stated)	4.61
Cc1ccc(O[C@@H]2C[C@H]3CN(C(=O)c4cnccn4)CCN3C2)cc1	-4.43
Cc1ccc(C(=O)N2CCC3(CC2)NC(=O)CC3c2ccccc2)cn1 (configuration not stated)	5.79
CSCCCNC(=O)C1CCC(=O)N(C2CCCC2)C1 (configuration not stated)	-3.06
O=C1CCCc2cc(S(=O)(=O)NCc3ccccn3)ccc2N1	-11
CC(C)(C)Oc1ccncc1NCc1cscn1	-3.05
O=C(c1cocn1)N1C[C@H]2CCC[C@@]2(COCc2cccnc2)C1	-1.51
CCN(CC)[C@@H]1CN(C(=O)c2ccnnc2)[C@@H]2CCCO[C@H]12	-8.7
O=C(C1CCOCC1)N1C[C@@H]2C[C@@H](c3nc(C4CC4)cs3)O[C@@H]2C1	8.69
COCC(=O)NCCC(=O)N1CCN(S(=O)(=O)c2cccc(Br)c2)CC1	-2.7
FC(F)C(F)(F)COCc1ncnn1-c1ccc2c(c1)OCO2	6.96
CCCC(N)CNS(=O)(=O)Cc1cccc(C#N)c1 (configuration not stated)	-3.64
Cc1cc(C2CCCN(C(=O)Cc3csc(C(C)C)n3)C2)n[nH]1 (configuration not stated)	-5.03
O=C(CNC(Cn1cccn1)c1ccccc1)Nc1cnccn1 (configuration not stated)	13
CC(=O)C1(c2ccccc2)CCN(C(=O)c2ccc3nnnn3c2)CC1	2.77
O=C(c1ccccc1)N1C[C@@H]2CC[C@H](C1)N(C(=O)CN1CCOCC1)C2	3.79
N#Cc1c(Cl)nsc1NCc1ccc(N2CCC(CO)CC2)cc1	-0.689
Cc1nn(COc2cccc(F)c2)c(C)c1NC(=O)C1CC1	2.57
Cc1ccc(C(=O)N2C[C@H]3CNC[C@H]3C2)cn1	25.5
CCCN(Cc1nc(-c2ccoc2)oc1C)CC1CCCO1 (configuration not stated)	-6
COc1cccc(C2CC(=O)Nc3nc(N4CCOCC4)sc32)c1OC (configuration not stated)	-8.01
CCn1cc(NC(=O)NCc2ccc(CN3CCOCC3)cc2)cn1	-6.5

SMILES	cytotoxicity at 70.5 h [%]
Cc1cnn(CCNCC(=O)NC2(C#N)CCCC2)c1	-0.423
Cc1nnc([C@H]2C[C@@H]3CCN(C(=O)C4CCOCC4)C[C@H]3O2)[nH]1	-9.85
CCN1CCN(C(=O)c2cc(-c3ccc(C)o3)n[nH]2)[C@H]2CS(=O)(=O)C[C@H]21	42.7
CN(C)CCNc1cc(-c2ccccc2C(N)=O)c2cc[nH]c2n1	-8.6
COCCC(=O)N1CC[C@@H](N2CCN(C)CC2)[C@@H]1Cc1ccccc1	-1.48
O=C(Cc1ccccn1)N1CCN(CC2CC2)c2ncccc2C1	-4.27
O=C(Nc1cccnc1N1CCSCC1)c1ccc2c(c1)CCC2	-3.24
COc1ccc(NC(=O)N(CC2CCOC2)C2CC2)cn1 (configuration not stated)	-6.27
CN1CCCCC1c1ncc2c(n1)CCN(Cc1ccccc1Cl)C2 (configuration not stated)	-7.2
CC(=O)Nc1sc2c(c1C(=O)O)CCc1ccccc1-2	-11.4
CN1CC(c2cc(O)nc(NCc3ccccc3Cl)n2)CC1=O (configuration not stated)	-2.82
Cc1nc(CN2CCc3cc(C(=O)O)c(N(C)C)nc3CC2)cs1	-5.8
CCCN(Cc1cnc2ccccc2n1)Cc1ccccc1OC	-7.09
COc1cccc(CNC(=O)c2ccccc2-n2cnc(CN)c2)c1	17
Cc1nc2cc(C(=O)N3C[C@@H](NS(C)(=O)=O)[C@H](C(C)C)C3)ccc2[nH]1	18.5
COc1cc(C#N)ccc1OCCN1CCC(n2ccnc2)CC1	-7.5
CCOCC1CN(Cc2ccsc2)Cc2cnn(C)c21 (configuration not stated)	-0.486
CC(=O)N(C)C1CCN(c2ncc3c(n2)CCN3c2ccccc2)C1 (configuration not stated)	-3.48
O=C(NC1CC1)c1cc(NC(=O)N2CCCC2)ccc1Cl	-13.8
OCCC1CN(C2CCC2)CCN1C1CCCC1 (configuration not stated)	-6.56
CC(C)N(C)Cc1noc2c1CN(C(=O)c1ccsc1)CC2	-12.5
Cc1nc(CN2Cc3nccn3CC(CN3CCCC3)C2)cs1 (configuration not stated)	-3.82
CO[C@@H]1CC[C@H]2[C@H]1OCCN2C(=O)c1ccc(C)o1	46.9

SMILES	cytotoxicity at 70.5 h [%]
CN(Cc1cnn(C)c1)C(=O)NCc1ccc2c(c1)OCCO2	0.47
Cc1cc(F)ccc1-c1ccccc1CC1CNCCNC1=O (configuration not stated)	5.41
CCCn1cnnc1CNC(=O)CC1C(=O)NCCN1C(C)C (configuration not stated)	10.7
CN(Cc1ccsc1)C(=O)Nc1ccc(S(=O)(=O)N(C)C)cc1	3.55
Cc1cc(C(N)=O)ccc1NC(=O)N1CCN(c2cccs2)CC1	-12.4
CCOc1ncnc2c1CCN(S(=O)(=O)C1CC1)CC2	14
c1cnc(N2CCOCC3(CCCN(Cc4cccs4)C3)C2)nc1 (configuration not stated)	19.9
Cc1nc(CNC(=O)[C@@H]2CCCN2C(=O)OC(C)(C)C)cs1	-7.16
COc1c(CNCc2ccc(N3CCOCC3)nc2)c(C)nn1C	-5.76
c1ccc(Cc2noc(CN(Cc3cccs3)CC3CCCO3)n2)cc1 (configuration not stated)	-4.54
N#CC1COCCN1S(=O)(=O)c1ccc(F)c(Br)c1 (configuration not stated)	-9.56
Cc1ccc(NC2CCN(C(=O)c3cc4c(s3)CCC4)CC2)nn1	-13.9
CNC(=O)c1cn[nH]c1C1CCN(Cc2ccccc2F)C1 (configuration not stated)	-3.84
O=C(NCc1ccccn1)[C@H]1COC[C@H]2CN(c3ncccn3)C[C@H]21	-4.8
Cc1cc(-c2ccc(C(=O)O)cc2)nc(C2CCN(C(C)C)CC2)n1	0.538
CS(=O)(=O)N[C@@H]1CCN(Cc2cccnc2)[C@H]1Cc1ccccc1	-11.7
O=C1CCSCC(C(=O)N2CCC(O)CC2)N1 (configuration not stated)	-10.8
Cn1ccnc1CCC1CCCCN1Cc1cnc(N2CCCC2)nc1 (configuration not stated)	22.9
CC(C(=O)NCC1(c2c(F)cccc2F)CCCC1)S(C)(=O)=O (configuration not stated)	-7.67
c1cc(CNCc2ccnc(N3CCCC3)c2)c2c(c1)OCO2	-6.8
O=C(Cc1cccs1)N1CCc2nnc(COc3cncnc3)n2CC1	14.8
CN(C)S(=O)(=O)c1ccc(CN2CCC(C(N)=O)CC2)o1	-2.97
N#Cc1cccc(Cl)c1NCCc1n[nH]c(=O)[nH]1	-3.93

SMILES	cytotoxicity at 70.5 h [%]
F[C@@H]1CN(CC2CC2)C[C@@H]1OCc1nc2ccccc2[nH]1	14.4
N#Cc1cnc(N2CCC3(CC2)OCCO3)nc1N	-5.59
Cc1noc(C)c1CN(C)C(=O)NC1CCN(c2ncccn2)CC1	35.3
Cc1nnc(NC(=O)CN2CCc3nn(C)c(=O)cc3C2)s1	10.8
COc1cc(N2CCCC(c3nccn3Cc3cscn3)C2)nc(N)n1 (configuration not stated)	-8.38
CNc1nc(CNC(=O)Nc2cccc(F)c2)cs1	-6.65
CC(C)(C)C(=O)N1C[C@@H]2COC[C@]2(c2nnc(C3CC3)o2)C1	-8.33
COc1c(C)cnc(CN2CCOC(Cn3nc(C)nc3C)C2)c1C (configuration not stated)	-1.22
O=C(CCc1nc(Cl)n[nH]1)N1CCC2(CCCNC2=O)C1 (configuration not stated)	4.11
CN(C)C(=O)C1CCCN1c1ncnc2ccsc12 (configuration not stated)	-10.1
CN(C)C(=O)N1CCCn2nc(CNC(=O)CCc3cccs3)cc2C1	0.772
COc1ccccc1CNC(Cc1cccs1)c1nc(C)c(C)s1 (configuration not stated)	8.5
O=C(Nc1ccccn1)C1CCN(Cc2cc3c(cc2O)OCO3)CC1	3.83
CCCN1CCCN(C(=O)c2oc(C)nc2C)CC1	30.9
CC(NC(=O)NCC1(c2ccc(F)cc2)CC1)c1nncn1C (configuration not stated)	-1.68
CCc1c(C)n(CCOC)c2nc3ccccc3n2c1=O	19.8
CN1CCN(c2cc(CNC(=O)c3ccc(=O)n(C)c3)ccn2)CC1	-15.6
COC(=O)Cn1c(=O)cc(C(F)F)c2c(C)nn(CC(F)F)c21	-8.33
CC(C)=CCCC1(C)C=Cc2c(cc(C)n(CC(=O)O)c2=O)O1 (configuration not stated)	-3.4
O=C(NCc1csc(Br)c1)c1ccncc1	-16.8
Cn1cc(CN2CCCC(CCc3ccc(F)cc3)C2)cn1 (configuration not stated)	8.18
COc1cc(N(C)CCC(O)c2ccccc2)ncn1 (configuration not stated)	-3.53
NC(=O)C1CCN(C(=O)NC2CCc3cc(F)ccc32)CC1 (configuration not stated)	2.63

SMILES	cytotoxicity at 70.5 h [%]
CC(C)CC(CNC(=O)NCc1cc[nH]n1)N1CCOCC1 (configuration not stated)	39.4
O=C(CN1CCOC(CNc2cccnn2)C1)NCc1cccs1 (configuration not stated)	-0.0167
c1cc(-c2nnc(C3(c4ccc5c(c4)OCO5)CCOCC3)o2)ccn1	-11.2
Cc1csc2c(=O)n3c(nc12)CCN(C(=O)c1ccnn1C)CC3	-6.6
Cc1ncnc2c1CCN(Cc1ccc3c(c1)OCO3)CC2	-3.06
Cc1cc(N2CCOCC(Cc3ccc4[nH]ccc4c3)C2)ncn1 (configuration not stated)	-9.7
c1cnnc(-c2noc(CCN3CCCO3)n2)c1	-10.9
CCc1[nH]c2ccc(CNc3cncc(C(=O)N(C)C)n3)cc2c1C	-0.482
Cc1csc(CN(C)CCCOc2cccc(C#N)c2)n1	13.7
Cc1nc(CN2CCC(N(C)Cc3noc(C(C)C)n3)C2)oc1C (configuration not stated)	10.7
Cc1ccc(C(C)N(C)Cc2nc3c(cnn3C)c(=O)[nH]2)cc1 (configuration not stated)	-17.2
CCOCc1nnc(NCc2cccc(C)c2)o1	-3.75
Cc1cnn(CC2CCCN2c2ncnc3c2CCC3)c1 (configuration not stated)	13.3
CC(C)NC(=O)CNC(=O)C12CCC(=O)N1c1cc(Cl)ccc1S2 (configuration not stated)	-0.426
Cc1ccc(Cl)cc1-n1nnnc1C1(N2CCCC2)CCCCC1	-12.7
O=C(c1ccc(F)cc1)N1CCN2C[C@H](OCc3cccnc3)C[C@H]2C1	-11
COCCNc1c(C#N)c2c(c3nncn13)CN(C)CC2	-5.01
CC(C)C(C)(C#N)NC(=O)Cn1cc(-c2ccccc2)cn1 (configuration not stated)	-5.67
Cc1ccccc1CN1CCC2(CCCN2C(=O)C(C)C)CC1	32.8
COc1ccc(OCCN(C)Cc2nc3c(cnn3C)c(=O)[nH]2)cc1	-3.93

Source: ChEMBL document CHEMBL3507680, “University of Dundee, Gates Library screen for HepG2 cell viability”
